Measurements as given in ChEMBL document CHEMBL1201862, “PubChem BioAssay data set” (2004).
Where “and” joins values, the source holds several entries; their conditions need not be identical. Identical values can stand only once. Calls of active or inactive are those of the source.

Experiments:
[1] = biological target: T1, Replicative DNA helicase DnaB (Mycobacterium tuberculosis, UniProt P9WMR3); assay: DnaB intein splicing inhibitors, dose response, biochemical, cell-free fluorescence (AID 449749); type: functional
T1 sequence (P9WMR3 whole entry): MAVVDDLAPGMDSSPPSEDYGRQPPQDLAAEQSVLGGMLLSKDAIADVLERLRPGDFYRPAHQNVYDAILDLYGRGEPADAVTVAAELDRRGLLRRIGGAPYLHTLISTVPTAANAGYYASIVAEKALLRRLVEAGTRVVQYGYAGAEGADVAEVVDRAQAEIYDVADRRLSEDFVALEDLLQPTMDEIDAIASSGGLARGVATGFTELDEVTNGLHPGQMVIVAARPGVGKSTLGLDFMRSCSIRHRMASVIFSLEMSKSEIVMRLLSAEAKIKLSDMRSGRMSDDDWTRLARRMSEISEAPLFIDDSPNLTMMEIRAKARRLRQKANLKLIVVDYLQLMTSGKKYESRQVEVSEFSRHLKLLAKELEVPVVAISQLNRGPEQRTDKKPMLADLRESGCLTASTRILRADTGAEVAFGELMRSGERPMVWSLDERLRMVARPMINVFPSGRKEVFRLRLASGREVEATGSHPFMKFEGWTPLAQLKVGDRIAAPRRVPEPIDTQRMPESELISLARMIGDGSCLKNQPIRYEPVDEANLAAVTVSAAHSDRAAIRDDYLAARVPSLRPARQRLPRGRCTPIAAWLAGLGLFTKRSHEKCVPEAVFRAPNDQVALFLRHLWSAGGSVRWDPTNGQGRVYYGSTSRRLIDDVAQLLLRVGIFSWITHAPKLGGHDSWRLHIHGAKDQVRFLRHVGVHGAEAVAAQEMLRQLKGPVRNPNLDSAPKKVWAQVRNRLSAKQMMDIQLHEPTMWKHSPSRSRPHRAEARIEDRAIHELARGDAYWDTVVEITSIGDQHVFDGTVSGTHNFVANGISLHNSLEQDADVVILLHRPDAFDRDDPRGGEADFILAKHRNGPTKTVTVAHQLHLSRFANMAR

[2] = biological target: 1-phosphatidylinositol 4,5-bisphosphate phosphodiesterase beta-3 (Homo sapiens, UniProt Q01970); assay: Fluorescence-based biochemical high throughput dose response assay to identify inhibitors of phospholipase C isozymes (PLC-B3).
[3] = biological target: T2, Zinc finger protein mex-5 (Caenorhabditis elegans, UniProt Q9XUB2); assay: potency of MEX-5 RNA-binding blockers – biochemical, C. elegans, fluorescence polarization, dose response (AID 1960)
T2 sequence (Q9XUB2 whole entry): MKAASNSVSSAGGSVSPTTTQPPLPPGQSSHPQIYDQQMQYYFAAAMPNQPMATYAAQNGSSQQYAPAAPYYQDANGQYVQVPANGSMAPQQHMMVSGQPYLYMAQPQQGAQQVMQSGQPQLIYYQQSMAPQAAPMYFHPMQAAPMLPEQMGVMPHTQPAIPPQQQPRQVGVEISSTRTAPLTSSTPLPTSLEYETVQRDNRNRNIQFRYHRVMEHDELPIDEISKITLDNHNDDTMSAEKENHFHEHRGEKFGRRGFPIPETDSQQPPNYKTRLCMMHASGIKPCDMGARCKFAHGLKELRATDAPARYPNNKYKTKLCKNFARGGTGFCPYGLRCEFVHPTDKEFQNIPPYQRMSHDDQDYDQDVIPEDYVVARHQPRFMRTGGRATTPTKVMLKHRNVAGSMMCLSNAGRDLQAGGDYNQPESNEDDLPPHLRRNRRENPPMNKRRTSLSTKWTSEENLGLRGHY

[4] = biological target: T3, Dual specificity protein phosphatase 3 (Homo sapiens, UniProt P51452); assay: SAR VHR1 Fluorescent Assay for In Vitro dose response studies Set 2. [Related pubchem assays (depositor defined):AID1654, AID1661, AID1878]; type: functional
[5] = biological target: Small ubiquitin-related modifier 2 (Homo sapiens, UniProt P61956); assay: SUMO2 binding disruption by SUMO1 hits – biochemical, FRET, human SUMO2, uHTS hits, selectivity assay for SUMO1 interaction inhibitor project, dose response (AID 624384); type: functional; conditions: read-out: IC50_Mean
[6] = biological target: T3, Dual specificity protein phosphatase 3; assay: SAR VHR1 absorbance Assay for In Vitro dose response studies. [Related pubchem assays (depositor defined):AID1654, AID1661, AID1878, AID1992, AID2004]
[7] = biological target: 72 kDa type IV collagenase (Homo sapiens, UniProt P08253); assay: Dose Response validation of uHTS RPN11 inhibitor hits using a MMP-2 Fluorescence assay.; type: functional
[8] = biological target: T4, Dual specificity protein phosphatase 6 (Rattus norvegicus, UniProt Q64346); type: functional;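 further: confirmatory in vitro dose-response testing of MKP-3 inhibition; recombinant His-tagged MKP-3 made in E. coli BL21 with OMFP substrate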
T4 sequence (Q64346 whole entry): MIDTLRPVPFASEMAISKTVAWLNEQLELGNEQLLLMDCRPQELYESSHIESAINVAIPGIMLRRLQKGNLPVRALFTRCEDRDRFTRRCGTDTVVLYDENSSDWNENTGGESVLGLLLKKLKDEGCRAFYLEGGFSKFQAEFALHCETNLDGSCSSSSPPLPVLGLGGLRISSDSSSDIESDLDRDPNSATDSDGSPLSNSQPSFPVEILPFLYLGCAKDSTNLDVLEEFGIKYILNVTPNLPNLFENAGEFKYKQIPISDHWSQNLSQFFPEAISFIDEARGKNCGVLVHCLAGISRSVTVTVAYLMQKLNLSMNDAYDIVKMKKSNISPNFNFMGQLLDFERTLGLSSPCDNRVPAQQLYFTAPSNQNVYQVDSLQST

[9] = tested on: Streptococcus sp. 'group A'; assay: Streptococcus pyogenes SK(-)GAS viability under kanamycin – luminescence, BacTiterGlo, confirmation, counter-screen for streptokinase expression inhibitor project, dose response (AID 1900); type: functional, organism-based

T3 sequence (P51452 whole entry): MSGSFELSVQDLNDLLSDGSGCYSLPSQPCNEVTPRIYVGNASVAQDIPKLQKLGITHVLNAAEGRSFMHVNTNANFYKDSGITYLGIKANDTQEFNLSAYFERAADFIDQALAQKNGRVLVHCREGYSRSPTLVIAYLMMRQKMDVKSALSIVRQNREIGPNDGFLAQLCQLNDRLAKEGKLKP
1-phosphatidylinositol 4,5-bisphosphate phosphodiesterase beta-3, sequence (Q01970 whole entry): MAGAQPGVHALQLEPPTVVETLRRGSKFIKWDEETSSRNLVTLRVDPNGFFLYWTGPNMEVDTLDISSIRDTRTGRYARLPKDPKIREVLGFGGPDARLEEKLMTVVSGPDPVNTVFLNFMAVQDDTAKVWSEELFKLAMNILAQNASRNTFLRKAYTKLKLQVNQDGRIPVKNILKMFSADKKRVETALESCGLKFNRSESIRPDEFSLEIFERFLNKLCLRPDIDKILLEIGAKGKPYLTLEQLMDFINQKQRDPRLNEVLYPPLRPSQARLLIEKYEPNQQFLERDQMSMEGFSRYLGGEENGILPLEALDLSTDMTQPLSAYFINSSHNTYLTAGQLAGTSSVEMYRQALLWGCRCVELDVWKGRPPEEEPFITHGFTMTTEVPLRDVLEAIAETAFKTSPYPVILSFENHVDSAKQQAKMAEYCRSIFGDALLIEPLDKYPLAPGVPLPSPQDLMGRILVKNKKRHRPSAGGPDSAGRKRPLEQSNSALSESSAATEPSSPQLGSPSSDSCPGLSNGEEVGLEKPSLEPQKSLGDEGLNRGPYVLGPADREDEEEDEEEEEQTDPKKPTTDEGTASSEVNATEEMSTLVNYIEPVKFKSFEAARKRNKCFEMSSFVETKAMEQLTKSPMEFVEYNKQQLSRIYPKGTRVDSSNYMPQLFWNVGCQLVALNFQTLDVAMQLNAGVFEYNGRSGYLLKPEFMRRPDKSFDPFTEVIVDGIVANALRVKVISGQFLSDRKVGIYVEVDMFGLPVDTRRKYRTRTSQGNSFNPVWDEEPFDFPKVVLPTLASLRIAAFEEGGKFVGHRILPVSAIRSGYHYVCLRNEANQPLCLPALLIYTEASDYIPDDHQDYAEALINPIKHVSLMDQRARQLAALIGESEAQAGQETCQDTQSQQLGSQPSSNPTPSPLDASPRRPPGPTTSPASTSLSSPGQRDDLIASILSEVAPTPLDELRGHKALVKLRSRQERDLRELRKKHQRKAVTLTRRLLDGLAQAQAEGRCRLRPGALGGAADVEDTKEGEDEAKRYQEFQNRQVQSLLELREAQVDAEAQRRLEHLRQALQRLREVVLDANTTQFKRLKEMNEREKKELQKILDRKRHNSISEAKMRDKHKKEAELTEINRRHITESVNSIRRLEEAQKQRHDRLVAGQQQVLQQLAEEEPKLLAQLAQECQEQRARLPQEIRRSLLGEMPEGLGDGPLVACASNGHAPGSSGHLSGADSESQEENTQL
72 kDa type IV collagenase, sequence (P08253 whole entry): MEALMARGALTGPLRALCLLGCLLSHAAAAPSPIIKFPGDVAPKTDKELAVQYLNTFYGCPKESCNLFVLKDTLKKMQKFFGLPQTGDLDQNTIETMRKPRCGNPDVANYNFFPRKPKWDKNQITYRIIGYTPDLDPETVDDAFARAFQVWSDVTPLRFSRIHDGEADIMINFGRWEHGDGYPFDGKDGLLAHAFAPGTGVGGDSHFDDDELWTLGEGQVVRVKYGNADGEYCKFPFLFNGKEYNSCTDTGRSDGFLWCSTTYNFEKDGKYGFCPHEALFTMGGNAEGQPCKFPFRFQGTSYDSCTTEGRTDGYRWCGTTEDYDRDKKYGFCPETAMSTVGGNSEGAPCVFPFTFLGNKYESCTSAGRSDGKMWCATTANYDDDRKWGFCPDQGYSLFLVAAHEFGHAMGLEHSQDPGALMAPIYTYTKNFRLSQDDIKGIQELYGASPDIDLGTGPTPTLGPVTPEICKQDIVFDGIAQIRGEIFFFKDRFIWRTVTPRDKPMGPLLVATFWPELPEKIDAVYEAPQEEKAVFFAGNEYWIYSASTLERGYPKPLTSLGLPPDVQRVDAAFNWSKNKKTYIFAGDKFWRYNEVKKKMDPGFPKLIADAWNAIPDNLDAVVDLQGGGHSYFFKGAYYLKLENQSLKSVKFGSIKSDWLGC
Small ubiquitin-related modifier 2, sequence (P61956 whole entry): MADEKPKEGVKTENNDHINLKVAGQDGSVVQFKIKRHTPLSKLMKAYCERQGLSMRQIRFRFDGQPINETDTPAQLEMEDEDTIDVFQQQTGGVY

| SMILES | AC50 [1] | IC50 [2] | EC50 [3] | IC50 [4] | IC50 [5] | IC50 [6] | IC50 [7] | IC50 [8] | EC50 [9] |
| --- | --- | --- | --- | --- | --- | --- | --- | --- | --- |
| COC(=O)c1cc(C)nc2c1C(=O)C(=O)C=C2N1CCOCC1 | 1.36 µM (active) | > 123 µM (inactive) |  |  |  |  |  |  |  |
| NS(=O)(=O)c1cc(C(=O)NC2CCSc3ccccc32)ccc1Cl (stereo not given) |  |  | 18.9 µM (inconclusive) | > 100 µM (inactive) and 82.8 nM (active) | 1.75 µM (active) | 121 nM (active) | 2.68 µM (active) | 2.96 µM (active) and > 100 µM (inactive) |  |
| O=C1c2ccccc2C(=O)c2[nH]c(O)nc21 |  |  | 17.9 µM (active) |  |  |  |  |  | 4.23 µM (active) |
